Two compounds from BindingDB's records for doi:10.1021/jm0609622 (Schering-Plough Research Institute, 2006) can be followed below.

This test in a line: Inhibition of CXCL1-induced human neutrophil chemotaxis.

Consider `Cc1ccc([C@@H](C)Nc2c(Nc3cccc(C(=O)N(C)C)c3O)c(=O)c2=O)o1` [(R)-2-hydroxy-N,N-dimethyl-3-(2-(1-(5-methylfuran-2-yl)ethylamino)-3,4-dioxocyclobut-1-enylamino)benzamide], for which the IC50 came out at 2.4 nM.

`CC[C@@H](Nc1c(Nc2cccc(C(=O)N(C)C)c2O)c(=O)c1=O)c1ccccc1` [(R)-3-(3,4-dioxo-2-(1-phenylpropylamino)cyclobut-1-enylamino)-2-hydroxy-N,N-dimethylbenzamide] yielded an IC50 of 48 nM.

Usually IC50 stands for the concentration that inhibits the measured activity by half.
